From PMC10774165, “Correlating sugar transporter expression and activities to identify transporters for an orphan sugar substrate” (Applied Microbiology and Biotechnology, 2024)

What was measured:
Format in all cases: cell-based
NCU00809 [1] = molecular target: T1, NCU00809 (Neurospora crassa, UniProt Q7SEC5); experiment: growth of transporter-expressing yeast on the sugar; conditions: S. cerevisiae EBY.VW4000
T1 construct: full-length cDNA in p426H7, expressed in S. cerevisiae EBY.VW4000 with K. lactis LAC4

NCU08052 = molecular target: T2, NCU08052 (Neurospora crassa, UniProt Q7SGN1); experiment: glycerol uptake by N. crassa wild type versus deletion mutant; conditions: after induction in arabinose, 20 min
T2 construct: native protein in N. crassa mycelium, wild type versus deletion mutant

CDT-1 = molecular target: T3, CDT-1 (Neurospora crassa, UniProt Q7SCU1); experiment: growth of transporter-expressing yeast on the sugar as sole carbon source; conditions: 0.2% or 2% lactose, 30 °C, 3 days, coexpressed K. lactis Lac4; uptake also reduced in N. crassa deletion mutant
T3 construct: full-length cDNA in p426H7, expressed in S. cerevisiae EBY.VW4000 (with K. lactis LAC4 for lactose)

NCU00809 [2] = molecular target: T1, NCU00809; experiment: as above; conditions: 0.2% or 2% lactose, 30 °C, 3 days, coexpressed K. lactis Lac4; uptake also reduced in N. crassa deletion mutant
CDT-2 = molecular target: T4, CDT-2 (Neurospora crassa, UniProt Q7SD12); experiment: as above; conditions: 0.2% or 2% lactose, 30 °C, 3 days, coexpressed K. lactis Lac4; uptake also reduced in N. crassa deletion mutant
T4 construct: full-length cDNA in p426H7, expressed in S. cerevisiae EBY.VW4000 with K. lactis LAC4
T4 sequence (Q7SD12 entry or part of it): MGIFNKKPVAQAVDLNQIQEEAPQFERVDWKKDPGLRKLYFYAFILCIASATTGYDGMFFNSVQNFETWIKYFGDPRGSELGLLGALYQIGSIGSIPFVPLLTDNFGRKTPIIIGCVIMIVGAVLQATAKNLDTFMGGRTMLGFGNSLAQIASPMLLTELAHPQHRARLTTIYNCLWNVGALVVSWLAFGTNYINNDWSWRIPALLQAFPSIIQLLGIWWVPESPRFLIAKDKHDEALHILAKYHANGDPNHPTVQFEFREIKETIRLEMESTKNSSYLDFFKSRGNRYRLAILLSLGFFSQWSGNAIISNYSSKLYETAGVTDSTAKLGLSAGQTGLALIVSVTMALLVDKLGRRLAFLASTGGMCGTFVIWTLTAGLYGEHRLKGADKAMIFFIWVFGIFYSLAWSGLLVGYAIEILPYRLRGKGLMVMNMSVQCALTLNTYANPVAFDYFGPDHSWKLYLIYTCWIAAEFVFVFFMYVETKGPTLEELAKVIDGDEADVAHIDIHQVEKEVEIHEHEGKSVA

T1 sequence (Q7SEC5 1-547): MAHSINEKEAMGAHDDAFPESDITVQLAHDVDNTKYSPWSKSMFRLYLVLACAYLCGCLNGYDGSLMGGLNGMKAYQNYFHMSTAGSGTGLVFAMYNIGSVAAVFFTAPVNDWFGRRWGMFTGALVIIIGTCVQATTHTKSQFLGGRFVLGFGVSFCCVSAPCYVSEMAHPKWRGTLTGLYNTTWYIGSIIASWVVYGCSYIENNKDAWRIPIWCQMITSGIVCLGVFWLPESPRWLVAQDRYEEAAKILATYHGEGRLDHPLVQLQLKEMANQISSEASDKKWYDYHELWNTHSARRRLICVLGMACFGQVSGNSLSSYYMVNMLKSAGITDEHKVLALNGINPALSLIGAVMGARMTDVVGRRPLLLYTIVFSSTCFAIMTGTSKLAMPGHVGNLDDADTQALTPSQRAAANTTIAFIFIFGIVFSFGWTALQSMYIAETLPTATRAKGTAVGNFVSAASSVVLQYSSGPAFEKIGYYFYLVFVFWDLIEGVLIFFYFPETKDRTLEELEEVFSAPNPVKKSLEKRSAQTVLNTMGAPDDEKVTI
T2 sequence (Q7SGN1 entry or part of it): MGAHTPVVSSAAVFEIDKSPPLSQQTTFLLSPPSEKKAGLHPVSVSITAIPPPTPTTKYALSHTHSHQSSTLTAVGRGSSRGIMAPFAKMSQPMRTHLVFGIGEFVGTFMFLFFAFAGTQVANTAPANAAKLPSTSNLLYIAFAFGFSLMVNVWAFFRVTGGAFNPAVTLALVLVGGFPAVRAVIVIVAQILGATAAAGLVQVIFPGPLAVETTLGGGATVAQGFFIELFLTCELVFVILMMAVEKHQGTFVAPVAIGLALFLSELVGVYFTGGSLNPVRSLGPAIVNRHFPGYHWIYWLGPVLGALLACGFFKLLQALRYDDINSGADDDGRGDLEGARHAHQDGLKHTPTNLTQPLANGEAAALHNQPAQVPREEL
T3 sequence (Q7SCU1 entry or part of it): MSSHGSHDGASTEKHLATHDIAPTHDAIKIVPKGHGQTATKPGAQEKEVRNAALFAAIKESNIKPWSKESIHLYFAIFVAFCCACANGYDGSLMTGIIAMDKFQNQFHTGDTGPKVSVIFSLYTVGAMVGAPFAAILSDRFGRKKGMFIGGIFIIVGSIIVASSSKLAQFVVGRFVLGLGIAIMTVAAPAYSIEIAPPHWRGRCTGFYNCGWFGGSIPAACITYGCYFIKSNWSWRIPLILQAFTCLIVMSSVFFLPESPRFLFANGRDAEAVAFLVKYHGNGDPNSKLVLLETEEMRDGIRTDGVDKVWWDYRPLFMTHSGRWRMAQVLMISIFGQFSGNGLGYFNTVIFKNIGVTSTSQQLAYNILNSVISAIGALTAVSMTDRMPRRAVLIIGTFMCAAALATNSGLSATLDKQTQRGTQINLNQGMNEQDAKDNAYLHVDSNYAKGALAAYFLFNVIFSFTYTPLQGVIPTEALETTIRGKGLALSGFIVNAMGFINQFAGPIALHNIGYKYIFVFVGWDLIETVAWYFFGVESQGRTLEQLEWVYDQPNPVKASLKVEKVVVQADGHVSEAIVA

`OC[C@H]1OC(O)[C@H](O)[C@@H](O)[C@H]1O` (stereo partly drawn) [D-galactose] was tested, and the “growth of transporter-expressing yeast on the sugar” value (NCU00809 [1]) was “NCU00809 was found to display transport activity for D-galactose”.

In the case of `OCC(O)CO` [glycerol], the “glycerol uptake by N. crassa wild type versus deletion mutant” value (NCU08052) is reported as “a significantly reduced uptake rate in the respective deletion mutant”.

In the case of `OC[C@H]1O[C@@H](O[C@H]2[C@H](O)[C@@H](O)C(O)O[C@@H]2CO)[C@H](O)[C@@H](O)[C@H]1O` (stereo partly drawn) [lactose, β-D-galactopyranosyl-(1 → 4)-D-glucose], the “growth of transporter-expressing yeast on the sugar as sole carbon source” value (shortened to “growth … as sole carbon source”) (CDT-1) is reported as “demonstrating that they are plasma membrane permeases that can transport lactose”, the “growth … as sole carbon source” value (NCU00809 [2]) is reported as “demonstrating that they are plasma membrane permeases that can transport lactose” and the “growth … as sole carbon source” value (CDT-2) is reported as “demonstrating that they are plasma membrane permeases that can transport lactose”.
